Experimental data: US8642622B2, “Piperidinyl compound as a modulator of chemokine receptor activity” (Bristol-Myers Squibb Company, priority 2010, dated 2014)

How the values were obtained:
[1] = Single-dose pharmacokinetics in rats; assay type: in vivo; details: for clearance / bioavailability: male, Sprague-Dawley, rat, plasma; for clearance: intravenous; for bioavailability: po
Protocol: Serial blood samples were collected for all studies from the jugular vein at various time points post dose (0.17 (or 0.25 for oral), 0.5, 0.75, 1, 2, 4, 6, 8 and 24 h, for example). Plasma samples were analyzed by LC-MS/MS.
Additional studies evaluating suspensions of crystalline drug substance in aqueous medium were performed as described above.

[2] = molecular target: T1, human cardiac sodium channel, SCNSA (Homo sapiens, UniProt Q14524); assay: Sodium channel whole-cell patch-clamp assay; assay type: cell-based; details: HEK293, HEK-293, protein-free buffer, read-out: Na channel, % inh
T1 construct: expressed in transfected cells; host or cells: HEK-293
T1 sequence (Q14524 whole entry): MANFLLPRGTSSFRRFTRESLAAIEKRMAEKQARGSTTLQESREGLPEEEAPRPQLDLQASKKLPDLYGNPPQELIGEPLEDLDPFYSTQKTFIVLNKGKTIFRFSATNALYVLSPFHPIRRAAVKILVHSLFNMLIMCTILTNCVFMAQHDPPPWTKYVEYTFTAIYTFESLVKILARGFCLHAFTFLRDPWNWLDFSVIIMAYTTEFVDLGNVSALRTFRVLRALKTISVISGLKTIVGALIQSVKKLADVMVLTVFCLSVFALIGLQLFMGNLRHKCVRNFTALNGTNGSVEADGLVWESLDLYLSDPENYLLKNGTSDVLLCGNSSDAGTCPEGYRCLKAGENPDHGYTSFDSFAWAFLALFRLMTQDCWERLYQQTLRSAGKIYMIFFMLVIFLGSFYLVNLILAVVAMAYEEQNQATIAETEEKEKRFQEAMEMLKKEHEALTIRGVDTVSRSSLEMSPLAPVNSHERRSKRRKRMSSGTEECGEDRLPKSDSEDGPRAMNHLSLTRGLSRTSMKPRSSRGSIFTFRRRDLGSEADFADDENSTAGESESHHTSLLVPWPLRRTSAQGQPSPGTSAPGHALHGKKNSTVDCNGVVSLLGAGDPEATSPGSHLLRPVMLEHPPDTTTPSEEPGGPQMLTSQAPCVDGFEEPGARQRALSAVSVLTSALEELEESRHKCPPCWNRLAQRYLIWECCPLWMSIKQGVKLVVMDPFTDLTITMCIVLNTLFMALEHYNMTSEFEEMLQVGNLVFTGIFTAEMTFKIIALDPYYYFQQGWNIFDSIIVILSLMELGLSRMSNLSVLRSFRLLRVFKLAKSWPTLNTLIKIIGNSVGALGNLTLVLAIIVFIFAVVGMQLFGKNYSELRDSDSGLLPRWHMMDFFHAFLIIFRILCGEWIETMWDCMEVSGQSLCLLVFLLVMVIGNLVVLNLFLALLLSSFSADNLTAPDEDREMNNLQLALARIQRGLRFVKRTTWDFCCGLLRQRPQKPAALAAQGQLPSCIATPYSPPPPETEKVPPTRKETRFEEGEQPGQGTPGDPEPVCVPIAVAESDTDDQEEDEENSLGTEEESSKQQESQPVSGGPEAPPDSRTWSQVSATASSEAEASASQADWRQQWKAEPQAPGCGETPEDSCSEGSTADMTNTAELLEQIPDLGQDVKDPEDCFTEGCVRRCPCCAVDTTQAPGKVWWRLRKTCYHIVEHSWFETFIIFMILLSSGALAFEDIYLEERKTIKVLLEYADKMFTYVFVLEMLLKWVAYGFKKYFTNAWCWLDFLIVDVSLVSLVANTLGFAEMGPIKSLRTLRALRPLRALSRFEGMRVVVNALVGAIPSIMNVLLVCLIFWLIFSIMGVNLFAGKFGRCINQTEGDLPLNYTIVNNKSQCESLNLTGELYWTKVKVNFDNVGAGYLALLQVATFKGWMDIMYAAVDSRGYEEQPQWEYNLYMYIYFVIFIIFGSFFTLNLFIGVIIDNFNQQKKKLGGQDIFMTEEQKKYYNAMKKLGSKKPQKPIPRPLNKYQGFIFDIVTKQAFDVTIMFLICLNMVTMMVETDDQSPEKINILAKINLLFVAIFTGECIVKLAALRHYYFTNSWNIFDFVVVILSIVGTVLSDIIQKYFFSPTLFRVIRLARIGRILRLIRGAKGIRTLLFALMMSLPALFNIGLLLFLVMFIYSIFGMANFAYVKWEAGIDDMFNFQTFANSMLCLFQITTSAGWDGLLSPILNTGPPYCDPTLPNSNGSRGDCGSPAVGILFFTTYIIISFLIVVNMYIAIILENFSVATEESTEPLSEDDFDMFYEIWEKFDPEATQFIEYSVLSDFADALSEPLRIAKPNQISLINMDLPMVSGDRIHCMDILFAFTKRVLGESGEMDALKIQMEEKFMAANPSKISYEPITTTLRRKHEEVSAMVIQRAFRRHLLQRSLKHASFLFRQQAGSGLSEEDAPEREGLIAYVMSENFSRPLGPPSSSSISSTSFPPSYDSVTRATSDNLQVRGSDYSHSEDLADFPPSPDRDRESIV
Protocol: Whole-cell patch-clamp was used to directly measure inward sodium currents in HEK-293 cells expressing the human cardiac sodium channel, SCNSA. After reach steady-state effect in the presence of drug, rate-dependence was assessed by stimulation at frequencies of 1 Hz and 4 Hz. Experiments were carried out using an aqueous buffer at pH 7.4 and at room temperature. There is no protein in the buffer and drug concentrations reported are nominal free drug levels. Test article was evaluated up to 10 μM (protein-free buffer). […] Data is reported as percent inhibition at a fixed concentration.

[3] = Electrocardiography in anesthetized rabbits (rabbit in vivo EP effect); details: for QT effect Dose: i.v. infusion 3, 10, 30 mg/kg; for QTcf, delta: change from pre-drug baseline
Protocol: A dose-response study of test compound was conducted in anesthetized rabbits to assess the cardiac electrophysiologic profile established in the cellular ion channel assays.
Experiments were performed in propofol-fentanyl anesthetized closed-chest male rabbits. A body surface electrocardiogram (ECG) and an intra-cardiac His-bundle electrogram were continuously monitored and recorded during the studies, using a PoNeMah system and a Prucka electrophysiological recording system, respectively. Test compound was prepared on the day of study in a vehicle of PEG400:ethanol:water (1:1:1) at a dosing concentration of 30 mg/mL. Test compound (n=3) or vehicle (n=3) was given intravenously over 5 minutes via an infusion pump at incremental doses of 3, 10 and 30 mg/kg. The interval between doses was 10 minutes, allowing for a 5-minute test agent infusion and a 5-minute rest period. Blood was sampled at baseline (pre-drug infusion) and immediately at the end of each infusion. For the 30 mg/kg dose, additional blood samples were taken at 10, 20 and 30 minutes after the end of infusion.
PR interval, QRS duration and QT interval were averaged from a 1 minute ECG recording period at time of blood sampling. QT interval was corrected for heart rate effects using both Fridericia (QTcf) and Van der Water (QTcv) formulae. AH and HV intervals, representing A-V node conduction and His-Purkinje conduction, respectively, were assessed by manual measurements from the His-bundle electrogram. Data were expressed as percent change from pre-drug baseline (mean±SEM) for PR, QRS, AH and HV intervals as well as delta change from the pre-drug infusion baseline (mean±SEM) for QTc intervals. Changes of 10% in PR, QRS, and AH intervals, and 20% in HV interval, as well as >10 ms in QTc interval are considered significant based on experience with the model.

[4] = Single-dose pharmacokinetics in dogs; assay type: in vivo; details: for clearance: intravenous
Protocol: Serial blood samples were collected for all studies at various time points post dose (0.17 (or 0.25 for oral), 0.5, 0.75, 1, 2, 4, 6, 8 and 24 h, for example). Plasma samples were analyzed by LC-MS/MS.

[5] = crystalline suspension in aqueous medium, read-out: Relative bioavailability when dosed as a crystalline suspension

SMILES | clearance [1] [mL/min/kg] | bioavailability [1, 5] [%] | bioavailability ([1]; oral solution, read-out: Rat oral bioavailability when dosed as solution) [%] | inhibition at 10 µM [2] [%] | Cmax: Free drug (at NOEL dose) [3] [µM] | Cmax: Free drug (at QT effect dose) [3] [µM] | NOEL dose ([3]; i.v. infusion) [mg/kg] | QT effect Dose [3] [mg/kg] | QTcf, delta ([3]; i.v. infusion) | clearance ([4]; male, beagle, dog, plasma) [mL/min/kg] | bioavailability ([4]; male, beagle, plasma, dog, oral solution, read-out: dog oral bioavailability when dosed as solution) [%] | Rat oral bioavailability when dosed as solution ([1]; oral solution) [%] | dog oral bioavailability when dosed as solution ([4]; oral solution)
CC(C)[C@@H](NC(=O)c1cccc(S(N)(=O)=O)c1)C(=O)N1CC[C@](O)(c2ccc(Cl)cc2)C(C)(C)C1 [Example 491] | 67 | 0 | 23 | 13 | 3.1 | 5.5 | 10 | 30 | +17 ms | 7.9 | 100 | – | –
CC(C)[C@@H](NC(=O)[C@@H]1CC[C@@H](O)C1)C(=O)N1CC[C@](O)(c2ccc(Cl)cc2)C(C)(C)C1 [Example 572] | 29 | > 90 | – | 25 | < 6.3 | 6.3 | – | 10 | +22 ms | 4.9 | – | 37 | 72
